{"source": "patent US20220071941A1", "about": "“THERAPIES FOR SQUAMOUS CELL CARCINOMAS” (Kura Oncology, Inc., priority 2018, published 2022)", "tested_on": "squamous head and neck cancer with HRAS mutations", "assay": "Phase II study of tipifarnib in subjects with HRAS mutant tumors (HNSCC cohort)", "format": "in vivo, human", "procedure": "A Phase II study was performed that investigated the antitumor activity, in terms of objective response rate, of tipifarnib in subjects with locally advanced, unresectable or metastatic, relapsed and/or refractory tumors that carry HRAS mutations and for whom there is no curative therapy available. Subjects were men and women over 18 years of age.\nInclusion criteria of the study were as follows: histologically or cytologically confirmed diagnosis of thyroid cancer (cohort 1) or squamous head and neck cancer (cohort 2) for which there is no curative therapy available; tumor that carries a missense HRAS mutation; subject consents to provide at least 10 unstained tumor slides for retrospective testing of HRAS gene tumor status; subject has measurable disease according to RECIST v1.1 and has relapsed or is refractory to prior therapy; at least 2 weeks since the last systemic therapy or radiotherapy regimen prior to enrolment; ECOG PS 0 or 1; acceptable liver function; acceptable renal function; and acceptable hematologic status.\nExclusion criteria of the study were as follows: prior treatment with an FTase inhibitor; history of relevant coronary heart disease or myocardial infarction within last 3 years, NYHA Grade III or greater congestive heart failure, cerebro-vascular attack within the prior year, or serious cardiac arrhythmia requiring medication except atrial fibrillation; known uncontrolled brain, leptomeningeal or epidural metastases (unless treated and well controlled for at least 4 weeks prior to Cycle 1 Day 1); controlled brain metastases that require continuous high dose corticosteroid use within 4 weeks of Day 1; non-tolerable>Grade 2 neuropathy or evidence of unstable neurological symptoms within 4 weeks first dose; major surgery, other than diagnostic surgery, within 4 weeks prior to first dose, without complete recovery; active, uncontrolled bacterial, viral, or fungal infections, requiring systemic therapy; or known infection with HIV, or an active infection with hepatitis B or hepatitis C.\nThe study comprised 36 participants and subjects were enrolled into two nonrandomized cohorts as follows: Cohort 1 was comprised of patients with malignant thyroid tumors with HRAS mutations; Cohort 2 was comprised of patients with squamous head and neck cancer with HRAS mutations. Patients received tipifarnib at a starting dose of 600-900 mg orally twice daily on days 1-7 and 15-21 of 28-day cycles.\nThe primary outcome measurement of the study was objective response rate. Additionally, progression-free survival, duration of response, and the number of subjects with adverse events and serious adverse events were also recorded as secondary outcome measures. Adverse events and serious adverse events were graded according to the NCI-CTCAE (Version 4.03).\nUpon meeting the primary objective (objective response rate), the study was amended to continue enrollment of HNSCC patients (Cohort 2) in addition to patients with other SCCs (Cohort 3). These patients had tumors carrying high HRASm variant allele frequency (VAF >35% or if baseline serum albumin is >3.5 g/dL)", "key": {"[1]": {"conditions": "of the 15 HNSCC patients meeting HRASm VAF criteria"}}}
{"smiles": "Cn1cncc1[C@@](N)(c1ccc(Cl)cc1)c1ccc2c(c1)c(-c1cccc(Cl)c1)cc(=O)n2C", "note": "[tipifarnib]", "values": [{"measurement": "overall response rate", "setting": "15 HNSCC patients meeting HRASm VAF criteria, starting dose 600-900 mg orally twice daily on days 1-7 and 15-21 of 28-day cycles", "value": 53, "unit": "%"}, {"measurement": "median progression-free survival (PFS), patients experiencing SD", "setting": "95% CI 1.6 to 5.4 months", "value": 4.5, "unit": "months"}, {"measurement": "median progression-free survival (PFS), patients experiencing a PR", "setting": "95% CI 5.3 to 19.5 months", "value": 19, "unit": "months"}, {"measurement": "overall median progression-free survival (PFS)", "setting": "N=15, 95% CI 4.5 to 19.5 months", "value": 5.4, "unit": "months"}, {"measurement": "patients with at least 1 treatment-emergent adverse event (TEAE)", "setting": "graded according to NCI-CTCAE Version 4.03", "value": "All patients"}, {"measurement": "most frequently observed drug-related Grade >3 TEAEs", "setting": "occurring in ≥10% patients", "value": "blood and lymphatic system disorders, gastrointestinal disorders, and renal disorders"}, {"measurement": "confirmed partial responses (PR), number of patients", "setting": "[1]", "value": 8}, {"measurement": "stable disease (SD), number of patients", "setting": "[1]", "value": 5}]}
